“Also recorded” adds a separate entry of the source.
Columns and labels:
[1] = molecular target: T1, PhzS from P. aeruginosa (PaPhzS) (Pseudomonas aeruginosa, UniProt Q9HWG9); test: Thermal shift assay (TSA) screening of thiazolidinedione derivatives; assay type: binding; conditions: different concentrations (3.12–100.0 µM)
T1 construct: implied by pET28a and the HisTrap purification; made in house; host or cells: E. coli Rosetta (DE3)
Procedure: TSA assays were performed on Applied Biosystems 7500 RT-PCR (Applied Biosystems, Foster City, CA USA), fitted with custom filter sets. All assays were carried out in triplicate on a 96-well PCR plate (PCR plates 96 well BioRad®), manually sealed with transparent capping strips (Flatcap strips BioRad®). The plates were centrifuged for 2 min, 2000 rpm, at 25 °C and then the fluorescence of SYPRO^TM orange (S6650) was monitored (excitation wavelength= 492 nm and emission wavelength= 610 nm), while the plate was heated from 25 to 85 °C, in increments of 1 °C per minute.
The TSA conditions employed in this work were previously optimised. Briefly, 5 µl of PaPhzS (5 µM final concentration), 1 µl of SYPRO^TM orange (5X), 13 µl of assay buffer (50 mM potassium phosphate, 300 mM NaCl, pH 8), and 1 µl DMSO (5% v/v), as a negative control, or the putative inhibitor (diluted in DMSO) were added to each well. All experiments were carried out in triplicate
Raw fluorescence data were recorded within the Applied Biosystems 7500 Software v2.0, and then exported to NAMI[52] for Tm calculation by the first-derivative method.

PaPhzS = molecular target: T2, PaPhzS (Pseudomonas aeruginosa, UniProt Q9HWG9); test: Compounds' affinity calculation by TSA (fraction of unfolded protein, DSFit software); assay type: binding, P. aeruginosa; conditions: for BEI (DSFit software): BEI: (pKd/MW)×1000, from DSFit Kd; for Kd: Kd (DSFit software), TSA, fraction of unfolded PaPhzS at 43 °C, PaPhzS 5 µM, ligand 3.12 to 200 µM; for LE (DSFit software): LE: 1.4*pKd/HA, from DSFit Kd
T2 construct: implied by pET28a and the HisTrap purification; made in house; host or cells: E. coli Rosetta (DE3)
T2 sequence (Q9HWG9 whole entry): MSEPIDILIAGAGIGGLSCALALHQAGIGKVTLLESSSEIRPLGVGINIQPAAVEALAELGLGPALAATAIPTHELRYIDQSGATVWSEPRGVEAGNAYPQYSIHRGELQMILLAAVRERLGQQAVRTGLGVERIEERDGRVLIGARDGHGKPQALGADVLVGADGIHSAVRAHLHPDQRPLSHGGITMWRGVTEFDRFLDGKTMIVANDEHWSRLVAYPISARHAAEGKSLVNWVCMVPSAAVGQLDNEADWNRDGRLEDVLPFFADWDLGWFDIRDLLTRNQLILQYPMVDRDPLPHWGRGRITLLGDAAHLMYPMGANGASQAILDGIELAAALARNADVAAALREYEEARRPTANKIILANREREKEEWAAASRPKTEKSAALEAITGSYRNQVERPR
Procedure: The effect of ligand’s concentration (ranging from 3.12 to 200 µM) over the PaPhzS Tm (5 µM final concentration) was evaluated using the same parameters described in section (2.2.2). […] The ΔCp value (0.69) required for this calculation was predicted by hydrophobic surface area-based method available on http://www.ibi.vu.nl/programs/bicepwww/. Briefly, the heat capacity (C) was calculated at two temperatures: 25 °C (before PhzS unfolding [T1]) and 50 °C (after PzhS unfolding [T2]) using Equation (2). C = 332.66 ± 18.9 X (273.15 − T) + 52089 ± 1353 (2) [drawing 2] where T stands for temperature in Kelvin. Therefore T1 = 298.15 K, T2 = 323.15 K.
Bai and co-workers devised an elegant workaround that limitation, which relies on the percentage of unfolded protein at a fixed temperature. […] According to Bai and co-workers (2019) Kd values close to the protein concentration (5 µM) or lower should be taken with scepticism. […] As these Kd values were obtained at a temperature higher than the physiologic one, we decided to employ an orthogonal assay to evaluate the compounds’ affinity. In order to achieve this goal, PaPhzS was labelled with FITC and the effects of different concentration of each inhibitor on the covalently modified PaPhzS was monitored at 25 °C (Figure 5).

PaPhzS-FITC = molecular target: T3, PaPhzS-FITC (Pseudomonas aeruginosa, UniProt Q9HWG9); test: Affinity to covalently modified PaPhzS (FITC fluorescence); assay type: binding, P. aeruginosa; conditions: for BEI (FITC): BEI: (pKd/MW)×1000, from PaPhzS-FITC Kd; for LE (FITC): LE: 1.4*pKd/HA, from PaPhzS-FITC Kd; for affinity to PaPhzS, in words: PaPhzS-FITC assay
T3 construct: implied by pET28a and the HisTrap purification); FITC (chemical covalent label, not a peptide; made in house; host or cells: E. coli Rosetta (DE3)
T3 sequence (Q9HWG9 whole entry): as above
Procedure: PaPhzS (2 mg/mL) was incubated with fluorescein-5-isothiocyanate (FITC) dye (6 mg/mL) containing 50 mM HEPES (pH 8.0) for 2 h, at 25 °C. Then, the solution was loaded on a Hi-Trap HP desalting column (GE Healthcare), previously equilibrated with 50 mM HEPES buffer (pH 8) and 2 CV of the same buffer were injected. The absorbance of the collected fractions was monitored at 280 nm and 490 nm and those with a molar ratio ranging from 0.3 and 1.0[55] were employed for the Kd calculation experiments, as follows: The fluorescence of PaPhzS-FITC, at 25 °C, using in a real-time thermocycler (AppliedBiosystem7500) equipped with the FAN filter (excitation 498 nm and emission 530 nm wavelengths) for 10 min in the presence of different concentrations of each compound (3.12–100.0 µM). The Raw fluorescence data, recorded within the Applied Biosystems 7500 Software v2.0, was employed for non-linear regression analysis (three parameters) (Equation 1), as available in GraphPad Prism 8.0 software (GraphPadV® Software, San Diego, CA, USA, www.graphpad.com). All experiments were carried out in triplicate using 96-well PCR plate (PCR plates 96 well BioRad®), manually sealed with transparent capping strips (Flatcap strips BioRad®).

PhzS from P. aeruginosa = molecular target: PhzS from P. aeruginosa; parameters: method as in PMID 32772556; conditions: Kd value calculated by microscale thermophoresis; cited from earlier work

T1 sequence (Q9HWG9 whole entry): as above

| Compound | concentration-response profile of ΔTm [1] | BEI (DSFit software) (PaPhzS) | Kd (PaPhzS) | LE (DSFit software) (PaPhzS) | Kd (PaPhzS-FITC) | affinity to PaPhzS, in words (PaPhzS-FITC) | melting point | also measured |
| --- | --- | --- | --- | --- | --- | --- | --- | --- |
| COCn1cc(/C=C2\SC(=O)NC2=O)c2ccccc21 [Compound 33] | clear concentration-response profile | 14.9 | 50 µM | 0.30 | 84.2 ± 0.2 µM | low affinity |  | BEI (FITC) (PaPhzS-FITC): 14.1; LE (FITC) (PaPhzS-FITC): 0.28 |
| O=C1S/C(=C\c2cc(Cl)ccc2O)C(=O)N1Cc1cccc(Cl)c1 |  |  |  |  |  |  | 201 to 202 °C |  |
| Cc1ccc(/C=C2\SC(=O)NC2=O)cc1Br |  |  |  |  |  |  | 196 to 197 °C |  |
| O=C1NC(=O)/C(=C\c2ccc(OCc3nc4ccccc4c(=O)n3-c3ccccc3)cc2)S1 [A, (E)-5–(4-((4-oxo-3-phenyl-3,4-dihydroquinazolin-2-yl)methoxy)benzylidene)thiazolidine-2,4-dione, reference compound] |  | 11.0 | 9.3 µM | 0.21 |  |  |  | Kd (PhzS from P. aeruginosa): 18 µM |
| O=C1NC(=O)/C(=C/c2cc(Cl)ccc2O)S1 [Compound 16] | clear concentration-response profile | 21.0 | 4.2 µM | 0.47 | 6.18 ± 0.2 µM | low micromolar ligands |  | BEI (FITC) (PaPhzS-FITC): 20.42; BEI (FITC) (PaPhzS-FITC; listed as Mol 16): 20.4; LE (FITC) (PaPhzS-FITC; listed as Mol 16): 0.45 |
| COc1ccc(/C=C2\SC(=O)NC2=O)c(Br)c1O [Compound 20, (Z) 5–(2-bromo-3-hydroxy-4-methoxybenzylidene)thiazolidine-2,4-dione] | clear concentration-response profile | 15.0 | 10.5 µM | 0.38 | 3.3 ± 0.3 µM | low micromolar ligands | 245 °C | BEI (FITC) (PaPhzS-FITC; listed as Mol 20): 16.6; LE (FITC) (PaPhzS-FITC; listed as Mol 20): 0.42 |
| O=C1NC(=O)/C(=C/c2c(O)ccc3ccccc23)S1 |  |  |  |  |  |  | 194 to 195 °C |  |
| O=C1S/C(=C\c2c(Cl)cccc2Cl)C(=O)N1Cc1cccc(Cl)c1 [Compound 3, (Z)-3–(3-chlorobenzyl)-5–(2,6-dichlorobenzylidene)thiazolidine-2,4-dione] |  |  |  |  |  |  | 110 to 111 °C |  |
| O=C1NC(=O)/C(=C/c2cncc3ccccc23)S1 |  |  |  |  |  |  | 118 to 119.5 °C |  |
| O=C1NC(=O)C(=Cc2cc(Cl)cc(Br)c2O)S1 [Compound 15] | clear concentration-response profile | 13.3 | 37.2 µM | 0.36 | 166 ± 0.5 µM | low affinity; also recorded: reduced affinity |  | BEI (FITC) (PaPhzS-FITC): 11.4; LE (FITC) (PaPhzS-FITC): 0.31 |
| O=C1NC(=O)/C(=C/C=C/c2ccccc2[N+](=O)[O-])S1 [Compound 38, (Z)-5-((E)-3–(2-nitrophenyl)allylidene)thiazolidine-2,4-dione] | small variation in ΔTm |  |  |  |  |  | 119 to 120 °C |  |
| COc1cc(OC)c(OC)cc1/C=C1\SC(=O)NC1=O [Compound 28, (Z-5–(2,4,5-trimethoxybenzylidene)thiazolidine-2,4-dione)] | clear concentration-response profile |  |  |  |  |  | 158 to 160 °C |  |
| COc1ccc(C(=O)CN2C(=O)S/C(=C\c3ccc(C)cc3)C2=O)cc1 |  |  |  |  |  |  | 174 to 176 °C |  |

Reference: article PMC8186431, “Synthesis and biological evaluation of thiazolidinedione derivatives with high ligand efficiency to P. aeruginosa PhzS” (Journal of Enzyme Inhibition and Medicinal Chemistry, 2021)
